This note sets out measurements from patent US20080103164A1, “USEFUL COMPOUNDS FOR HPV INFECTION” (priority 2004, published 2008).

The term IC50 denotes the midpoint of a concentration-inhibition curve. Read a high IC50 as lower potency.

The structures appear in SMILES notation.

In one experiment the test system is episomal HPV-16 DNA in W12-20850 cells. The experiment can be described thus: W-12 cellular assay: episomal HPV-16 DNA quantified by hybrid capture in W12-20850 cells. The format is cell-based, HPV16. The settings on record: Human papillomavirus 16, 96 h, four days incubation, inhibition of episomal HPV-16 DNA relative to untreated control. The method, then: Compounds of the current invention are believed useful in the treatment and/or prophylaxis of conditions and diseases associated with HPV infection. Activity mediated through HPV was determined using the following W-12 cellular assay. The […] cell line used contains HPV16 DNA and was derived from a low-grade cervical dysplasia tissue by Margaret Stanley and subsequently clonally selected by Paul Lambert (University of Wisconsin). One of these clones, […]-20850, contains 1000 copies of episomal HPV16 DNA and was used in the cell-based assay. […]-20850 cells were routinely cultured with a gamma-irradiated (6000 rads) feeder layer of 3T3 cells. Assays, however, were run in the absence of a 3T3 feeder layer. […]-20850 and 3T3 cells were routinely split when they were sub-confluent. […]-20850 were grown in […] Medium which is constituted of 25% DMEM (Gibco BRL, Cat # 12430-047), 75% F12 Media (Gibco BRL, Cat # 11765-021) and 2.5% FBS. The additives include […] Adenine (Sigma, Cat # A-9795), […] Hydrocortisone (Calbiochem, Cat # 386698), […] Bovine Insulin (Sigma, Cat # 1-1882), 8.4 ng/ml cholera toxin (Fluka, Cat # 26694) and 10 ng/ml EGF (Invitrogen, Cat # 13247-051). 3T3 cells were grown in DMEM containing 10% FBS. Cell lines were incubated at 37° C., in the presence of 5% CO2. For the assay, […]-20850 cells were seeded into a 96 well plate-containing compound. Plates were incubated at 37° C. in the presence of 5% CO2, for four days. On the fourth day, cells were lysed and the amount of episomal HPV-16 DNA was quantified using a non-radioactive hybrid capture technique with HPV-16 specific capture and detection probes. The percent inhibition relative to untreated control cells was then determined. The hybrid capture assay is run in a 96 well plate format. Hybridization plates (Nunc Maxisorb Cat # 450320) were coated with a mixture of capture probe and ReactiBind solution for at least 4 hours and then washed with 0.2×SSC, 0.05% Tween-20 (SSCT) prior to blocking with 150 μl/well of 0.2 N NaOH, 1% Igepal, 10 mg/ml hsDNA for 6-8 hours. The hybridization was carried out by mixing 27 μl of lysed cells with 45 μl of denatured detection probe in 6M guanidine isothiocyanate. To prevent evaporation, 50 μl of mineral oil was added to each well. The plate was then heated to 90° C. for 6.5 minutes and the hybridization continued at 42° C. overnight. Assay plates were washed 6 times with SSC/T. Anti-digoxigenin HRP-conjugated Ab (Boehringer Mannheim 1207733, 1:5000) was incubated in the wells for 30 min at room temperature and washed with PBS/0.05% Tween-20. SuperSignal LBA substrate (Pierce Cat # 37070) was added, and chemiluminescence was measured using Wallac 1420 Victor plate reader.
For the compound `COC(=O)N1CCc2c([nH]c3ccc(Cl)cc23)C1c1ccc(C)cc1` (stereo not drawn) [Example 2, Methyl 6-chloro-1-(4-methylphenyl)-1,3,4,9-tetrahydro-2H-β-carboline-2-carboxylate], 68 nM corresponded to half-maximal inhibition (IC50).
`Cc1ccc(C2c3[nH]c4ccc(Cl)cc4c3CCN2C(=O)CCc2ccccc2)cc1` (stereo not drawn) [Example 3, 6-Chloro-1-(4-methylphenyl)-2-(3-phenylpropanoyl)-2,3,4,9-tetrahydro-1H-β-carboline] registered an IC50 of 60 nM. This IC50 and that of the compound before are within 1.5-fold of each other.
With `Cc1ccc(C2c3[nH]c4ccc(Cl)cc4c3CCN2C(=O)OCc2ccccc2)cc1` (stereo not drawn) [Example 4, Phenylmethyl 6-chloro-1-(4-methylphenyl)-1,3,4,9-tetrahydro-2H-β-carboline-2-carboxylate], the midpoint of inhibition, the IC50, lay at 22 nM. Against the preceding compound, the IC50 is about 2.7-fold lower.
On the same count and under the same terms, next, `COC(=O)N1CCc2c([nH]c3ccc(F)cc23)C1c1ccc(C)cc1` (stereo not drawn) [Example 6, Methyl 6-fluoro-1-(4-methylphenyl)-1,3,4,9-tetrahydro-2H-β-carboline-2-carboxylate]: 365 nM; `Cc1ccc(C2c3[nH]c4ccc(F)cc4c3CCN2C(=O)CCc2ccccc2)cc1` (stereo not drawn) [Example 7, 6-Fluoro-1-(4-methylphenyl)-2-(3-phenylpropanoyl)-2,3,4,9-tetrahydro-1H-β-carboline]: 216 nM.
Still for that read-out and setting: with `Cc1ccc(C2c3[nH]c4ccc(F)cc4c3CCN2C(=O)OCc2ccccc2)cc1` (stereo not drawn) [Example 8, Phenylmethyl 6-fluoro-1-(4-methylphenyl)-1,3,4,9-tetrahydro-2H-β-carboline-2-carboxylate] the figure was 446 nM.
For the compound `COC(=O)N1CCc2c([nH]c3ccc(Br)cc23)C1c1ccc(C)cc1` (stereo not drawn) [Example 10, Methyl 6-bromo-1-(4-methylphenyl)-1,3,4,9-tetrahydro-2H-β-carboline-2-carboxylate], half-maximal inhibition (IC50) was put at 11 nM.
Compound `Cc1ccc(C2c3[nH]c4ccc(Br)cc4c3CCN2C(=O)CCc2ccccc2)cc1` (stereo not drawn) [Example 11, 6-Bromo-1-(4-methylphenyl)-2-(3-phenylpropanoyl)-2,3,4,9-tetrahydro-1H-β-carboline] came in with a half-maximal inhibitory concentration (IC50) of 20 nM. This IC50 lies about 1.8-fold higher than the previous one.
The compound `Cc1ccc(C2c3[nH]c4ccc(Br)cc4c3CCN2C(=O)OCc2ccccc2)cc1` (stereo not drawn) [Example 12, Phenylmethyl 6-bromo-1-(4-methylphenyl)-1,3,4,9-tetrahydro-2H-β-carboline-2-carboxylate] registered a half-maximal inhibitory concentration (IC50) of 14 nM. The IC50 values of the last two compounds are within 1.5-fold of each other.
For `Cc1ccc([C@@H]2c3[nH]c4ccc(Cl)cc4c3CCN2C(=O)CCc2ccccc2)cc1` [Example 13, (1R)-6-Chloro-1-(4-methylphenyl)-2-(3-phenylpropanoyl)-2,3,4,9-tetrahydro-1H-β-carboline], it took 8000 nM to reach half-maximal inhibition (IC50). This IC50 is about 570-fold higher than that of the compound before.
`Cc1ccc([C@H]2c3[nH]c4ccc(Cl)cc4c3CCN2C(=O)CCc2ccccc2)cc1` [Example 14, (1S)-6-Chloro-1-(4-methylphenyl)-2-(3-phenylpropanoyl)-2,3,4,9-tetrahydro-1H-β-carboline] registered an IC50 of 15 nM. Against the preceding compound, the IC50 is about 530-fold lower.
Same read-out and setting: next, `Cc1ccc(C2c3[nH]c4ccccc4c3CCN2S(=O)(=O)Cc2ccccc2)cc1` (stereo not drawn) [Example 15, 1-(4-Methylphenyl)-2-[(phenylmethyl)sulfonyl]-2,3,4,9-tetrahydro-1H-β-carboline]: 7000 nM; `Cc1ccc(C2c3[nH]c4ccccc4c3CCN2S(C)(=O)=O)cc1` (stereo not drawn) [Example 16, 1-(4-Methylphenyl)-2-(methylsulfonyl)-2,3,4,9-tetrahydro-1H-β-carboline]: 24000 nM; `Cc1ccc(C2c3[nH]c4ccccc4c3CCN2S(=O)(=O)c2ccc(N)cc2)cc1` (stereo not drawn) [Example 17, (4-{[1-(4-Methylphenyl)-1,3,4,9-tetrahydro-2H-b-carbolin-2-yl]sulfonyl}phenyl)amine]: 10000 nM.
For the compound `CC(=O)N1CCc2c([nH]c3ccccc23)C1c1ccc(C)cc1` (stereo not drawn) [Example 18, 2-Acetyl-1-(4-methylphenyl)-2,3,4,9-tetrahydro-1H-β-carboline], the midpoint of inhibition, the IC50, lay at 5000 nM.
The same measure, in the same setting: next, `Cc1ccc(C2c3[nH]c4ccccc4c3CCN2C(=O)CCc2ccccc2)cc1` (stereo not drawn) [Example 19, 1-(4-Methylphenyl)-2-(3-phenylpropanoyl)-2,3,4,9-tetrahydro-1H-β-carboline]: 1000 nM; `Cc1ccc(C2c3[nH]c4ccccc4c3CCN2C(=O)C#Cc2ccccc2)cc1` (stereo not drawn) [Example 20, 1-(4-Methylphenyl)-2-(3-phenyl-2-propynoyl)-2,3,4,9-tetrahydro-1H-b-carboline]: 26000 nM.
Still for that read-out and setting: with `Cc1ccc(C2c3[nH]c4ccccc4c3CCN2C(=O)CCc2cccnc2)cc1` (stereo not drawn) [Example 21, 1-(4-Methylphenyl)-2-[3-(3-pyridinyl)propanoyl]-2,3,4,9-tetrahydro-1H-β-carboline] the figure was 18000 nM.
With `Cc1ccc(C2c3[nH]c4ccccc4c3CCN2C(=O)CNC(=O)OCc2ccccc2)cc1` (stereo not drawn) [Example 22, Phenylmethyl {2-[1-(4-methylphenyl)-1,3,4,9-tetrahydro-2H-b-carbolin-2-yl]-2-oxoethyl}carbamate], the concentration for half-maximal inhibition (IC50) is 4000 nM.
`COc1ccc2[nH]c3c(c2c1)CCN(C(=O)CCc1ccccc1)C3c1ccc(C)cc1` (stereo not drawn) [Example 23, 6-(Methyloxy)-1-(4-methylphenyl)-2-(3-phenylpropanoyl)-2,3,4,9-tetrahydro-1H-β-carboline] returned an IC50 of 600 nM.
Same read-out and setting: with `Cc1ccc(C2c3[nH]c4c(C)cccc4c3CCN2C(=O)CCc2ccccc2)cc1` (stereo not drawn) [Example 24, 8-Methyl-1-(4-methylphenyl)-2-(3-phenylpropanoyl)-2,3,4,9-tetrahydro-1H-β-carboline] the figure was 2000 nM; with `Cc1ccc(C2c3[nH]c4ccc(C)cc4c3CCN2C(=O)CCc2ccccc2)cc1` (stereo not drawn) [Example 25, 6-Methyl-1-(4-methylphenyl)-2-(3-phenylpropanoyl)-2,3,4,9-tetrahydro-1H-β-carboline], 400 nM; with `Cc1ccc(C2c3[nH]c4cc(F)ccc4c3CCN2C(=O)CCc2ccccc2)cc1` (stereo not drawn) [Example 26, 7-Fluoro-1-(4-methylphenyl)-2-(3-phenylpropanoyl)-2,3,4,9-tetrahydro-1H-β-carboline], 2000 nM.
Compound `COc1ccc2c3c([nH]c2c1)C(c1ccc(C)cc1)N(C(=O)CCc1ccccc1)CC3` (stereo not drawn) [Example 27, 7-(Methyloxy)-1-(4-methylphenyl)-2-(3-phenylpropanoyl)-2,3,4,9-tetrahydro-1H-β-carboline] yielded an IC50 of 6000 nM.
Same read-out and setting: with `O=C(/C=C/c1ccccc1)N1CCc2c([nH]c3ccccc23)[C@H]1c1ccc2c(c1)CCO2` [Example 30, (1R)-1-(2,3-dihydro-1-benzofuran-5-yl)-2-[(2E)-3-phenyl-2-propenoyl]-2,3,4,9-tetrahydro-1H-β-carboline] the figure was greater than 20000 nM.
As for `O=C(/C=C/c1ccccc1)N1CCc2c([nH]c3ccccc23)[C@@H]1c1ccc2c(c1)CCO2` [Example 31, (1S)-1-(2,3-dihydro-1-benzofuran-5-yl)-2-[(2E)-3-Phenyl-2-propenoyl]-2,3,4,9-tetrahydro-1H-β-carboline], the IC50 stood at 2000 nM.
Consider `COc1ccc(-c2ccnc(N3CCc4c([nH]c5ccccc45)C3c3ccc4c(c3)OCO4)n2)cc1` (stereo not drawn) [Example 32, 1-(1,3-benzodioxol-5-yl)-2-{4-[4-(methyloxy)phenyl]-2-pyrimidinyl}-2,3,4,9-tetrahydro-1H-β-carboline], for which the half-maximal inhibitory concentration (IC50) turned out to be 2000 nM.
As for `c1cnc(N2CCc3c([nH]c4ccccc34)C2c2ccc3c(c2)OCO3)nc1` (stereo not drawn) [Example 33, 1-(1,3-benzodioxol-5-yl)-2-(2-pyrimidinyl)-2,3,4,9-tetrahydro-1H-β-carboline], the IC50 was determined as 5000 nM.
Consider `c1ccc(-c2ccnc(N3CCc4c([nH]c5ccccc45)C3c3ccc4c(c3)OCO4)n2)cc1` (stereo not drawn) [Example 34, 1-(1,3-benzodioxol-5-yl)-2-(4-phenyl-2-pyrimidinyl)-2,3,4,9-tetrahydro-1H-β-carboline], for which the IC50 came to 2000 nM.

The experiment is the same for the next values; noted with them: four days incubation, inhibition of episomal HPV-16 DNA relative to untreated control.
`O=C(/C=C/c1ccccc1)N1CCc2c([nH]c3ccccc23)C1c1ccc2c(c1)CCO2` (stereo not drawn) [Example 29, (1R/1S)-1-(2,3-dihydro-1-benzofuran-5-yl)-2-[(2E)-3-phenyl-2-propenoyl]-2,3,4,9-tetrahydro-1H-β-carboline] returned a half-inhibitory concentration (IC50) of 3000 nM.
